Reference: patent US10786521B2, “Methods and compositions for treatment of COPD diseases” (Shanghai KE Pharmaceutical Co., LTD, priority 2014, dated 2020)
“Also recorded” adds a separate entry of the source.

How the values were obtained:
[1] = test system: airway smooth muscle (bronchial rings); experiment: Relaxation of evoked isometric force of bronchial rings (wire myograph); format: cell-based, mice; settings: for relaxation of evoked force of airway smooth muscle / bronchial rings: in vitro, concentration not given; for relaxation of MCh-evoked force at final concentration of 500 μM: 500 μM final, bronchi ring isometric assay; for IC50: MCh-evoked force, dose dependent
Experimental: Briefly, the entire respiratory tree was rapidly removed and immersed in Krebs-Henseleit buffer (118.1 mM NaCl, 4.7 mM KCl, 1.2 mM MgSO4, 2.5 mM CaCl2, 1.0 mM NaH2PO4, 25 mM NaHCO3 and 11.1 mM glucose, pH 7.4). Bronchial rings, 2 mm in length, were isolated from pulmonary bronchi using a dissection microscope. Then the bronchial segments were mounted in a small-vessel wire myograph chamber (Danish Myo Technology, Aarhus, Denmark) by threading on two steel wires (40 μm in diameter) secured to two supports. One support was attached to a force transducer for measurements of isometric force development, and the other was attached to a micrometer controlling ring circumference. The preparation was kept in the chamber, immersed in 5 ml of Krebs-Henseleit solution, bubbled with 5% CO2 and 95% O2 and maintained at 37° C. The initial isometric tension of bronchial ring was set to 0 mN prior to equilibration for 20 min. The bronchial ring was then stretched in order to keep the force at 5 mN followed by an additional equilibration for 20 min. The isometric forces produced by bronchial ring was recorded with a data acquisition and analysis program (Danish Myo Technology, Aarhus, Denmark).
The robust relaxation effect and low risk of toxicity of KE on airway smooth muscle indicates its promising prospects for development. To identify the active ingredients of KE, the KE was divided into three parts including EtOAc phase, n-BuOH phase and water phase using EtOAc and n-BuOH sequential extraction. Upon the airway smooth muscle rings reached a relative steady contraction state evoked by MCh, accumulated volume of these three phases was added to assess the relaxation capacity. […] On the other hand, 1 μL of EtOAc phase just relaxed the rings to 90%.
Their dose-responsive effect on relaxation of airway smooth muscle was measured. When the force evoked by acetylcholine reached a relatively steady state, kudinosides were added to the bath in cumulative concentrations (0.1 μM, 0.3 μM, 1 μM, 3 μM, 10 μM, 30 μM). […] When the concentration of kudinoside D increased to 10 μM, about 50% of the force was relaxed. Strikingly, upon treatment with 30 μM of kudinoside D, more than 80% of the force was relaxed (FIG. 5B). Similarly, 30 μM of kudinoside A also led to 80% inhibition of evoked force. Note that the relaxation effect of kudinosides was completely reversible, because the relaxed muscles restored response to MCh after washing off.

[2] = test system: asthmatic airway constriction in acute asthma mouse model; experiment: Airway resistance (Rrs, FlexiVent) in OVA-induced, methacholine-challenged asthma mice; format: in vivo, C57BL/6 mice; settings: for inhibition of airway constriction in vivo: mouse
Experimental: Asthma mice were established as reported previously. Briefly, six to eight-week-old female C57BL/6 mice were carried out by intraperitoneal injection of 100 μg ovalbumin and 4 mg Imject Alum (ThermoFisher Scientific) in total volume of 0.2 mL on days 0 and 14. These mice were then challenged with 1.5%-2% aerosolized ovalbumin for 1 h on days 24, 25 and 26. The efficacy of drugs was evaluated by measuring airway resistance in these mice 24 h after the last challenge.
(§1) The airway resistance was measured through an invasive method as described in previous reports. In brief, the mice were anesthetized with 240 mg/kg Avertin and the trachea was cannulated with an 18-gauge metal needle. Mechanical ventilation (FlexiVent; SCIREQ Inc., Montreal, Canada) was applied at a frequency of 150 breaths per minute, a tidal volume of 10 ml/kg, and positive end-expiratory pressure of 2.5 cm H2O. Prior to methacholine challenge, deep inflation was applied followed by administration of aerosolized PBS to obtain stabilization of airway resistance (Rrs, cmH2O·s/mL). The Rrs after PBS was considered to be the baseline. Then mice were challenged with sequential concentrations of methacholine with a dose of 2.0, 4.0, 8.0, 16, 32 and 64 mg/mL by an ultrasonic nebulizer until reaching bronchoconstrictive phase that was four to five folds greater than baseline. Three minutes after the last dose of methacholine inhalation, the reagents were delivered by the same ultrasonic nebulizer. The Rrs measurements were performed every 30 s throughout the experiments. The negative control for these studies was PBS, because all the solvents for reagents used here were PBS. As a positive control, albuterol (3 μg; Sigma), the most widely used β-agonist as an effective bronchodilator for asthma therapy, was used.
as §1, with “Acute asthma model mice were established as reported previously. Briefly, six to eight-week-old female C57BL/6 mice were carried out by intraperitoneal injection of 100 μg ovalbumin and 4 mg Imject Alum (ThermoFisher Scientific) in total volume of 0.2 mL on days 0 and 14. These mice were then challenged with 1.5%-2% aerosolized ovalbumin for 1 h on days 24, 25 and 26. The efficacy of drugs by measuring airway resistance in these mice 24 h was evaluated after the last challenge. The airway” for “The airway”

human asthma (severe) = experiment: Kudinoside A inhalation (atomization device) in two volunteers with severe asthma syndromes; format: in vivo; settings: volunteer; for time to release of dyspnea: kudinoside A 20 mM inhaled for 15 seconds, albuterol as control
Experimental: In order to test the effect of single substance in KE extract on asthma therapy, two volunteers with severe asthma syndromes were treated with kudinoside A (20 mM) with an atomization device.

L-type calcium channel = molecular target: T1, L-type calcium channel (Mus musculus, UniProt Q01815); experiment: Whole-cell patch clamp recording of VDCC currents in primary airway smooth muscle cells; format: cell-based; settings: 50 μM; room temperature; pulses −60 to +50 mV from −80 mV
T1 construct: endogenous in cells; host or cells: primary airway smooth muscle cells
T1 sequence (Q01815 whole entry): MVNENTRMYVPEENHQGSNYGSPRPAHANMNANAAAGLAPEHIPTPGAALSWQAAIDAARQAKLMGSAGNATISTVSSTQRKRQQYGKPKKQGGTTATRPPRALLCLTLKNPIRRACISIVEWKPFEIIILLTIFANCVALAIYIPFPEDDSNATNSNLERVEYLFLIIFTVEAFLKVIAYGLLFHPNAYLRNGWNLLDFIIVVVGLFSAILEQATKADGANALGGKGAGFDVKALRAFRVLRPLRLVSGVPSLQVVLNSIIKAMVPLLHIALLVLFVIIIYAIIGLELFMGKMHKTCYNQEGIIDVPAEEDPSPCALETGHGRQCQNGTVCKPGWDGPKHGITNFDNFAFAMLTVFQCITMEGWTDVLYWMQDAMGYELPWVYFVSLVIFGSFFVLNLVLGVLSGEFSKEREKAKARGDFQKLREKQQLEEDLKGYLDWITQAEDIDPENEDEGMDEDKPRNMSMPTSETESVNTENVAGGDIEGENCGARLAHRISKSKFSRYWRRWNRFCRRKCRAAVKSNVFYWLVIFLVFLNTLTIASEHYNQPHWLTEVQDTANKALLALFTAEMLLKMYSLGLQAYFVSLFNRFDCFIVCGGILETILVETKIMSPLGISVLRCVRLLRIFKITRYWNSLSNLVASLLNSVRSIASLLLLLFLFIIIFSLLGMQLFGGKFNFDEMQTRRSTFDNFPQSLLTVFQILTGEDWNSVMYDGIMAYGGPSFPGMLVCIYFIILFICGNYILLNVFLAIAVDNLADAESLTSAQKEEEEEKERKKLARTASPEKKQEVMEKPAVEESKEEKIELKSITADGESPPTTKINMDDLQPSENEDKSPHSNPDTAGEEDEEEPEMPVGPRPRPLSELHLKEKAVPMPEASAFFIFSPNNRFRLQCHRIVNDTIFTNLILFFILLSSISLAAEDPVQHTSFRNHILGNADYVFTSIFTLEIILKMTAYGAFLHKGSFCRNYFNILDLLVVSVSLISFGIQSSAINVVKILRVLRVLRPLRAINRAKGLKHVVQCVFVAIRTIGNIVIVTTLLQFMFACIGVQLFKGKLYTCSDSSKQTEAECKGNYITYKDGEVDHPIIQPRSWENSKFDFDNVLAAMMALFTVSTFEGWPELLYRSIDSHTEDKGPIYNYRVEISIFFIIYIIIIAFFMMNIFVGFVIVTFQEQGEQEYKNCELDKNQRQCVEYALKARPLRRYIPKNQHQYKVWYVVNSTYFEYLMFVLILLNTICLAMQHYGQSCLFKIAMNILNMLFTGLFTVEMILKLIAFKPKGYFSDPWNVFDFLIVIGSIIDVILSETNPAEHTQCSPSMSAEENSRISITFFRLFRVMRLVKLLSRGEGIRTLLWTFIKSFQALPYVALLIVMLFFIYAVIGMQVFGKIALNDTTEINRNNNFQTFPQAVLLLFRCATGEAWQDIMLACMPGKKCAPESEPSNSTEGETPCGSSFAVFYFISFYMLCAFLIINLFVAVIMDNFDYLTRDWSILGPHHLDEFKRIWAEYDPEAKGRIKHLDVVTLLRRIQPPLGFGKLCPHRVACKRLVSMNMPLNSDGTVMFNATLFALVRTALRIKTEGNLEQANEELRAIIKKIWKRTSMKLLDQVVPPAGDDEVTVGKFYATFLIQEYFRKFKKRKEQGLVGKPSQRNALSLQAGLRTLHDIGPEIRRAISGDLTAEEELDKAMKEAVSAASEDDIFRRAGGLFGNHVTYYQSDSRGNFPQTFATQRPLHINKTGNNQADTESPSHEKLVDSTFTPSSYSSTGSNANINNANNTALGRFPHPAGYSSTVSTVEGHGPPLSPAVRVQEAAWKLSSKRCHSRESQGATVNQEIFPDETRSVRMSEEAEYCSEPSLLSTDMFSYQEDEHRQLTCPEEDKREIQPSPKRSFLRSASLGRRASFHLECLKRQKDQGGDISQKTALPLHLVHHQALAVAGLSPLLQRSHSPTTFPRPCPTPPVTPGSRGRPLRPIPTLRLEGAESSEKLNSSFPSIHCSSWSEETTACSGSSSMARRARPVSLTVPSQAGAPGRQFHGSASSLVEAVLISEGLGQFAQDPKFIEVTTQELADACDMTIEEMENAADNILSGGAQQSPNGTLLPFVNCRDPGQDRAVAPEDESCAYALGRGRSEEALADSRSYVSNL
T1 sequence (O08532 25-1103 partner): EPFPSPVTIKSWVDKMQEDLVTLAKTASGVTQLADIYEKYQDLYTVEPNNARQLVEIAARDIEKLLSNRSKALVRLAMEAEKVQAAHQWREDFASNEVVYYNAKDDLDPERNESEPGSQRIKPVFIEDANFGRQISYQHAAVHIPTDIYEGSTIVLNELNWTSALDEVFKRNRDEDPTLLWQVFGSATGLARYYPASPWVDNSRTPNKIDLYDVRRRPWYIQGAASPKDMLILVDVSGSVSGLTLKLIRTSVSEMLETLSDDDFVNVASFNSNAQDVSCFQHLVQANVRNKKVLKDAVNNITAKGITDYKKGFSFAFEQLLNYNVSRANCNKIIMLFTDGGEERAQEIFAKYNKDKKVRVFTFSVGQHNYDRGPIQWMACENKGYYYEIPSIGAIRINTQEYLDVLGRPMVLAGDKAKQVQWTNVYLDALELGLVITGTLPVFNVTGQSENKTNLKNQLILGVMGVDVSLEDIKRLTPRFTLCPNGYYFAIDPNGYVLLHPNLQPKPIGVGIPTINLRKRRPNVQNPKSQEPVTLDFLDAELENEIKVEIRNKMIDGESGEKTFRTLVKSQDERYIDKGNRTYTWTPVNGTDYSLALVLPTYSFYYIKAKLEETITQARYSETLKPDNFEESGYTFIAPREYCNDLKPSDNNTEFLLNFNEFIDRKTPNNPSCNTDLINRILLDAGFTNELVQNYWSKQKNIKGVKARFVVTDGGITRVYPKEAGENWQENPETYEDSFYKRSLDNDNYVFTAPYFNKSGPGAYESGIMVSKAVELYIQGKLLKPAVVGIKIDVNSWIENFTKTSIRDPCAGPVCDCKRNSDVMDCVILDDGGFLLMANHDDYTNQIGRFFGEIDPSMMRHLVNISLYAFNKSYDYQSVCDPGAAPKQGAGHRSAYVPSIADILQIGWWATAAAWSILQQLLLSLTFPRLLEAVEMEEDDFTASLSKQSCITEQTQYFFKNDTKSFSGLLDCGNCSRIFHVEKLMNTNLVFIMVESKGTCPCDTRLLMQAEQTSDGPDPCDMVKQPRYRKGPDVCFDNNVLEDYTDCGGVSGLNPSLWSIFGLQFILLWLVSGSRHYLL
T1 sequence (P54285 whole entry partner): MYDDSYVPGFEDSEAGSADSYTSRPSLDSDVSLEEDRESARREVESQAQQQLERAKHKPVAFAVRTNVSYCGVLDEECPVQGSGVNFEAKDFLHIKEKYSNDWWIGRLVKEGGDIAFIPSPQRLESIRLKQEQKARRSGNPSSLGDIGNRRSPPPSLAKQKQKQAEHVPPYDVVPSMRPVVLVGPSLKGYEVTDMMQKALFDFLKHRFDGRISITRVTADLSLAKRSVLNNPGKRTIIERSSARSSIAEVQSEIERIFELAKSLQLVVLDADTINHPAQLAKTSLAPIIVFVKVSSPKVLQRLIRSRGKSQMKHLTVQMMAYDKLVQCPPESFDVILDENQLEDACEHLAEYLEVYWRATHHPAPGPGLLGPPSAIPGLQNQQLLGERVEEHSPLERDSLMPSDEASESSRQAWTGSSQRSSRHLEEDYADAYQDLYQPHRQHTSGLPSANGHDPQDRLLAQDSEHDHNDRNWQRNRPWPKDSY
Experimental: So to identify the target of certain kudinosides, patch-clamp studies were used to examine the modulation of L-type calcium channel currents after Kudinosides treatment. In patch-clamp studies, whole-cell patch clamp recording of VDCC currents were performed at room temperature, in response to voltage pulses (−60 to +50 mV from a holding potential of −80 mV, 200 ms).

Kudinoside H was tested, and the “relaxation of evoked force of airway smooth muscle / bronchial rings” value [1] was “fails to show effective bronchial ring relaxation; also recorded: little effect on relaxation in vitro” and the “inhibition of airway constriction in vivo” value [2] was “little inhibition activity of airway constriction in vivo”.
In the case of C[C@@H]1O[C@@H](O[C@H]2[C@H](O[C@H]3[C@H](O[C@H]4CC[C@@]5(C)[C@@H](CC[C@]6(C)[C@@H]5CC=C5[C@@H]7CC(C)(C)C[C@@H](O)[C@]7(C)CC[C@]56C)[C@@]4(C)CO)O[C@H](C(=O)O)[C@@H](O)[C@@H]3O)O[C@H](CO)[C@H](O)[C@@H]2O)[C@H](O)[C@H](O)[C@H]1O [Soyasaponin Bb, reference compound], the “relaxation of MCh-evoked force at final concentration of 500 μM” value (shortened to “relaxation of MCh-evoked force”) [1] is reported as “about 50%”.
For Kudinoside C, the “relaxation of evoked force of airway smooth muscle / bronchial rings” value [1] was “strong relaxation effect on airway smooth muscles” and the “inhibition of airway constriction in vivo” value [2] was “significant inhibition of airway constriction”.
In the case of CC(C)(C)NCC(O)c1ccc(O)c(CO)c1 (stereo not drawn) [albuterol, reference compound], the “reduction of airway resistance at 1 minute after inhalation, 3 μg (positive control)” value ([2]; 3 μg inhaled, 1 minute, printed as 'led to a reduction of') is reported as 55.59±13.07%, the “effect on asthmatic airway resistance” value ([2]; n-BuOH phase 30 μg, albuterol 3 μg, inhaled after MCh challenge) is reported as “significant reduction of airway resistance” and the “duration of release of dyspnea” value (human asthma (severe)) is reported as “could not be maintained overnight”. The “time to release of dyspnea” value (human asthma (severe)) was ≤ 3 min.
For Kudinoside A, the “force relaxed / inhibition of evoked force at 30 μM” value ([1]; force evoked by acetylcholine, cumulative concentrations, 30 μM) was 80%, the “relaxation of evoked force of airway smooth muscle / bronchial rings” value [1] was “significantly relaxed bronchial rings in a dose-dependent manner” and the “decrease of current generated by L-type calcium channel compared to vehicle” value (L-type calcium channel) was “about 60%”. For the same compound, the “duration of release of dyspnea” value (human asthma (severe)) was “maintained overnight”, the “PEF value after inhalation” value (human asthma (severe); 20 mM, 15 seconds inhalation, increased from 100) was 320 and the “time to release of dyspnea” value (human asthma (severe)) was 5 min.
C[C@@H]1O[C@@H](O[C@H]2[C@H](O[C@H]3[C@H](O[C@H]4CC[C@]5(C)[C@H]6CC=C7[C@@H]8CC(C)(C)CC[C@]8(C(=O)O)CC[C@@]7(C)[C@]6(C)CC[C@H]5C4(C)C)OC[C@H](O)[C@@H]3O)O[C@H](CO)[C@@H](O)[C@@H]2O)[C@H](O)[C@H](O)[C@H]1O [Raddeanin A, reference compound] was tested, and the “relaxation of MCh-evoked force” value [1] was “about 50%”.
With CC1(C)[C@@H](O)CC[C@]2(C)[C@H]3C(=O)C=C4[C@@H]5C[C@@](C)(C(=O)O)CC[C@]5(C)CC[C@@]4(C)[C@]3(C)CC[C@@H]12 [Glycyrrhetinic acid, reference compound] the “relaxation of MCh-evoked force” value [1] was “about 50%” and the IC50 ([1]; Mus musculus) was 84.3 µM.
For C[C@@H]1O[C@@H](O[C@@H]2[C@H](O)[C@@H](O)[C@H](O[C@H]3CC[C@@]4(C)C(CC[C@]5(C)C4C=C[C@]46OC[C@@]7(CCC(C)(C)CC74)[C@@H](O)C[C@]65C)C3(C)C)O[C@@H]2CO[C@@H]2O[C@H](CO)[C@@H](O)[C@H](O)[C@H]2O)[C@H](O)[C@H](O)[C@H]1O (stereo partly drawn) [Saikosaponin C, reference compound], the “relaxation of MCh-evoked force” value [1] was “about 50%” and the IC50 [1] was > 150 µM.
COC(=O)[C@@]1(C)CC[C@]2(C(=O)O)CC[C@]3(C)C(=CC[C@@H]4[C@@]5(C)C[C@H](O)[C@H](O)[C@@](C)(CO)[C@@H]5CC[C@]43C)[C@@H]2C1 [Phytolaccagenin, reference compound] was tested, and the “relaxation of MCh-evoked force” value [1] was “about 50%”.
